The nature of data set [1]: Example 3: multiple-dose (14 days) pharmacokinetics in HCV positive subjects. It counts as in vivo, human. The procedure: Multiple escalating doses of compound of Formula Ia were administered for 14 days to HCV positive subjects who were genotype 1 Interferon-a (with or without ribavirin) non responders. In a randomized, placebo controlled, third party blind study, multiple doses of 100 mg BID, 200 mg BID, 400 mg BID, 400 mg TID, and 600 mg TID of compound of Formula Ia or placebo in a 3:1 ratio with or without food were evaluated.
• Group 1: Compound of Formula Ia 100 mg (2×50 mg) BID or matching placebo×14 days without food. • Group 2: Compound of Formula Ia 200 mg (2×100 mg) BID or matching placebo×14 days without food. • Group 3: Compound of Formula Ia 400 mg (4×100 mg) BID or matching placebo×14 days without food. • Group 4: Compound of Formula Ia 400 mg (4×100 mg) TID or matching placebo×14 days without food. • Group 5: Compound of Formula Ia 400 mg (4×100 mg) BID or matching placebo×14 days with food. • Group 6: Compound of Formula Ia 600 mg (6×100 mg) BID or matching placebo×14 days without food. • Group 7: Compound of Formula Ia 600 mg (6×100 mg) BID or matching placebo×14 days with food. • Group 8: compound of Formula Ia 600 mg (6×100 mg) TID or matching placebo×14 days without food. • Group 9: compound of Formula Ia intermediate dose or matching placebo×14 days with or without food.
Each subject was randomized to one treatment group. On Day 14, only the AM dose was administered.
For Cohorts Without Food: Treatments were administered on the morning (approximately 8 AM) of Days 1 and 14 following a 10 hour fast. Fasting continued until 4 hours postdose. Water was allowed during the fasting period. On the nonpharmacokinetic collection days (Days 2 through 13) breakfast and dinner were consumed either 90 minutes before or 90 minutes after each dose. All treatments were administered with approximately 240 mL of noncarbonated water. All doses on Days 1-14 were administered at approximately the same time each day, for cohorts with BID dosing study treatment were administered approximately 12 hours apart at 8 AM and 8 PM, and for cohorts with TID dosing study treatment were administered approximately 8 hours apart at 8 AM, 4 PM, and 12 Midnight.
For Cohorts With TID Dosing: All volunteers were dosed three times daily at approximately the same time each day; the doses were administered approximately 8 hours apart at 8 AM, 4 PM, and 12 Midnight.
For Cohorts With BID Dosing: All volunteers were dosed twice a day at approximately the same time each day. The doses were administered approximately 12 hours apart at 8 AM and 8 PM.
On Day 14, all subjects received only their assigned AM dose. During the dosing the capsule(s) were swallowed whole, not chewed or crushed. After dosing, the oral cavity was inspected to assure the volunteer had completely swallowed the capsule(s). […] Water was permitted throughout the fasting and nonfasting periods. […]
The plasma concentration data of compound of Formula Ia was used to estimate the following pharmacokinetic parameters: • Cmax—Maximum observed plasma concentration; • Tmax—Time of observed maximum plasma concentration; • AUC(O-t)—Area under the plasma concentration-time curve over the dosing interval • AUC (tf)—Area under the plasma concentration-time curve to the final quantifiable sample • CL/F—Apparent total body clearance. • t½—Terminal phase half life • Vd/F—Apparent volume of distribution • R—Accumulation ratio […]

Another data set relates to HCV. Briefly: Suppression of virus in serum after about two weeks of administration. It counts as in vivo. As to conditions: threshold of detectability.

For the compound `CC(C)(C)NC(=O)N[C@H](C(=O)N1C[C@H]2[C@@H]([C@H]1C(=O)NC(CC1CCC1)C(=O)C(N)=O)C2(C)C)C(C)(C)C` (mixture of isomers) [Formula Ia, (1R,5S)-N-[3-Amino-1-(Cyclobutylmethyl)-2,3-Dioxopropyl]-3-[2(S)-[[[(1,1-Dimethylethyl)Amino]Carbonyl]Amino]-3,3-Dimethyl-1-Oxobutyl]-6,6-Dimethyl-3-Azabicyclo[3.1.0]Hexan-2(S)-Carboxamide], the “mean accumulation ratio for BID dosing” value in data set [1] (BID dosing, 14 days) was determined as 1. For the same compound, the Cmax in data set [1] (Day 14, 400 mg BID without food, mean, n=11) came to 459 ng/mL. The “AUC(0-12 hr)” value in data set [1] (Day 14, 400 mg BID, mean, n=11) was 1644 ng·h/mL. For the same compound, the concentration at 11 day in data set [1] (human, plasma, multiple oral dosing, read-out: steady-state level (trough, Cmin)) was roughly 200 ng/mL. The “time at which steady-state levels were reached” value in data set [1] (trough data (Cmin)) is roughly 11 days. Also, in the data set on HCV, the “virus level in serum” value was less than 100 copies/ml.

For the origin of these results see patent US20070021351A1, “Liver/plasma concentration ratio for dosing hepatitis C virus protease inhibitor” (Schering Corporation, priority 2005, published 2007).
